# Source: patent US20220243211A1, “PEPTIDE NUCLEIC ACID COMPOSITIONS WITH MODIFIED HOOGSTEEN BINDING SEGMENTS AND METHODS OF USE THEREOF” (Yale University, priority 2019, published 2022)
# Test system: CFBE cells
# Assay: Comet assay for DNA damage
# Format: cell-based, human
# Details: versus untreated cells
# Method: FIG. 6 is a bar graph showing the results of a comet assay for DNA damage. TriTek Comet Score FreeWare was used to calculate comet tail moment for each treatment condition. Plots show the average comet tail moment which indicates the extent of DNA damage. Error bars represent the SEM; ****P<0.0001 by unpaired t-test.
# 50,000 CFBE cells were plated per well in 6-well plates. The following day, the cells were treated with the indicated PNA containing NPs, treated with lipfectamine alone, or transfected with CRISPR-based editing reagents. The next day, cells were collected and prepared using the Trevigen Comet Assay kit per the manufacturer's protocol (Trevigen, Gaithersburg, Md.). Briefly, cells were suspended in agarose and added to comet slides. After the agarose solidified, the slides were incubated for 1 hour in lysis solution, placed in electrophoresis solution for 30 min, then run at 21 V for 1 hour at 4° C. The slides were then placed in acetate solution for 30 min, then incubated in 70% ethanol solution for 30 min. The comet slides were then dried, stained with SYBR Green for 30 min and then visualized using an EVOS microscope. TriTek Comet Score freeware was used to analyze the images. The average comet tail moment was plotted for each condition. Error bars represent the SEM; ****P<0.0001 by unpaired t-test. […]
substance,measurement,value
"H-KKK-TJTJJTTT-OOO-TTTCCTCTATGGGTAAG-KKK-NH2 [γhCF PNA-h] (TNTNNTTTTTTCCTCTATGGGTAAG; listed as DNA, chemistry not fully specified) [tail clamp PNA targeting human CFTR gene with MPγ monomers in Hoogsteen domain]",comet tail moment,no significant change in comet tail moment
